From publication PMC9021288 (Nature Communications, 2022)

Experiment: Human hepatocyte clearance (relay assay)
Conditions: human, hepatocytes
Source text: Briefly, cryopreserved human primary hepatocytes were thawed and cultured as described above.

## C[C@@H](CNC(=O)[C@H](O)C(C)(C)CO)NC(=O)c1cc(C#N)ccc1F [MMV693182]
  hepatocyte CLint: 0.2 µL/min/1e6 cells
